Reference: patent US20230114854A1, “CHIMERIC ANTIGEN RECEPTOR TARGETING B-CELL MATURATION ANTIGEN AND USE THEREOF” (CELLGENTEK CO., LTD., priority 2020, published 2023)
“And” between values parts separate entries of the source, which are not always exact repeats. Equal entries are not always repeated.

Assays:
[1] = test system: multiple myeloma cell line H929 xenograft; conditions: for growth inhibition rate (GIR (%)) versus untreated group (Vehicle): Day 17, NK cells 1×10^7 cells i.v. ×3, Velcade and Darzalex 0.5 mg/kg i.p. ×5
Protocol: In a xenograft animal model using NOD.Cg-Prkdcscid Il2rgtm1Wj1/SzJ (NSG) mouse (Jackson Laboratory, Jax #00557 strain), the anticancer efficacy of BCMA-CAR NK cells expressing BCMA-CAR1 was evaluated.
After subcutaneous implantation of multiple myeloma cell line H929 with high BCMA expression, when the tumor size reached 150 mm^3 (10 days post implantation), 5 mice were randomly assigned to each group, and once every 5 days, BCMA-CAR NK cells or control NK cells (NKvec) were administered at a concentration of 1×10^7 cells via intravenous tail vein injection (i.v.) in a total of 3 administrations. Here, a proteasome inhibitor, Velcade® (ingredient name: Bortezomib) and an antibody medication, Darzalex® (ingredient name: Daratumumab) being used as treatment medications for multiple myeloma patients were used as control drugs, and Velcade® (Vel) and Darzalex® (Dara) were each administered at a concentration of 0.5 mg/kg via intraperitoneal (i.p.) route, once every 3-4 days, in a total of 5 administrations.

[2] = target: BCMA expressed on multiple myeloma cells (H929, MM1.R, OPM-2) (UniProt Q02223); assay: cell-based or functional assay
Chain of UniProt Q02223 (Q02223 whole entry): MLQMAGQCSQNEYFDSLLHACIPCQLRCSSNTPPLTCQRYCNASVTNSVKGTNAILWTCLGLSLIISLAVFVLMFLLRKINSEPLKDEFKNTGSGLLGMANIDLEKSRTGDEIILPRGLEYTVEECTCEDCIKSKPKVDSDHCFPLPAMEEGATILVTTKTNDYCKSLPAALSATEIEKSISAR

## CC(C)C[C@H](NC(=O)[C@H](Cc1ccccc1)NC(=O)c1cnccn1)B(O)O [Velcade, Bortezomib]
[1]
  growth inhibition rate (GIR (%)) versus untreated group (Vehicle): 39%
[1]; mouse, in vivo
  toxicity (body weight): toxicity i.e., a decrease in body weight

## Daratumumab [Darzalex]
[1]
  growth inhibition rate (GIR (%)) versus untreated group (Vehicle): 23%

B1: BCMA-CAR2 (protein)
chain: EVQLLESGGGLVQPGGSLRLSCAASGFTFSNYGVHWVRQAPGKGLEWVSYISYSGGTYYNPSLKSRFTISRDNSKNTLYLQMNSLRAEDTAVYYCARDSDDFGFDYWGQGTLVTVSSGSTSGSGKPSGEGSTKGQSVLTQPPSASGTPGQRVTISCQGDSLRSYYVNWYQQLPGTAPKLLIYDHSKRPTGVPDRFSGSKSGTSASLAISGLRSEDEADYYCQSYDSSTVVFGGGTKLTVLGALSNSIMYFSHFVPVFLPAKPTTTPAPRPPTPAPTIASQPLSLRPEASRPAAGGAVHTRGLDKPFWVLVVVGGVLACYSLLVTVAFIIFWVRSKRSRLLHSDYMNMTPRRPGPTRKHYQPYAPPRDFAAYRSGGGGSKRGRKKLLYIFKQPFMRPVQTTQEEDGCSCRFPEEEEGGCELGGGGSRVKFSRSADAPAYQQGQNQLYNELNLGRREEYDVLDKRRGRDPEMGGKPRRKNPQEGLYNELQKDKMAEAYSEIGMKGERRRGKGHDGLYQGLSTATKDTYDALHMQALPPR
[2]
  cytolytic activity toward multiple myeloma cells (H929, MM1.R, OPM-2), versus control NK cells (NKvec): 3 to 4 times and > 4 times

B2: BCMA-CAR4 (protein)
chain: EVQLLESGGGLVQPGGSLRLSCAASGFTFSGHYWSWVRQAPGKGLEWVSTVSGSGGDTFYADSVKGRFTISRDNSKNTLYLQMNSLRAEDTAVYYCARGHSVMDVWGQGTLVTVSSGSTSGSGKPSGEGSTKGEIVLTQSPGTLSLSPGERATLSCRASQGIDSYVAWYQQKPGQAPRLLIYDASLRATGIPDRFSGSGSGTDFTLTISRLEPEDFAVYYCQQYNSWPITFGQGTKLEIKRALSNSIMYFSHFVPVFLPAKPTTTPAPRPPTPAPTIASQPLSLRPEASRPAAGGAVHTRGLDKPFWVLVVVGGVLACYSLLVTVAFIIFWVRSKRSRLLHSDYMNMTPRRPGPTRKHYQPYAPPRDFAAYRSGGGGSKRGRKKLLYIFKQPFMRPVQTTQEEDGCSCRFPEEEEGGCELGGGGSRVKFSRSADAPAYQQGQNQLYNELNLGRREEYDVLDKRRGRDPEMGGKPRRKNPQEGLYNELQKDKMAEAYSEIGMKGERRRGKGHDGLYQGLSTATKDTYDALHMQALPPR
[2]
  cytolytic activity toward multiple myeloma cells (H929, MM1.R, OPM-2), versus control NK cells (NKvec): 3 to 4 times and > 4 times

B3: BCMA-CAR3 (protein)
chain: EVQLLESGGGLVQPGGSLRLSCAASGFTFSDYGLSWVRQAPGKGLEWVSLIDSSGSSTFYADSVKGRFTISRDNSKNTLYLQMNSLRAEDTAVYYCAKEHGLFDSWGQGTLVTVSSGSTSGSGKPSGEGSTKGEIVLTQSPGTLSLSPGERATLSCKASQDIDDDINWYQQKPGQAPRLLIYDASLRATGIPDRFSGSGSGTDFTLTISRLEPEDFAVYYCQQSLRTPITFGQGTKLEIKRALSNSIMYFSHFVPVFLPAKPTTTPAPRPPTPAPTIASQPLSLRPEASRPAAGGAVHTRGLDKPFWVLVVVGGVLACYSLLVTVAFIIFWVRSKRSRLLHSDYMNMTPRRPGPTRKHYQPYAPPRDFAAYRSGGGGSKRGRKKLLYIFKQPFMRPVQTTQEEDGCSCRFPEEEEGGCELGGGGSRVKFSRSADAPAYQQGQNQLYNELNLGRREEYDVLDKRRGRDPEMGGKPRRKNPQEGLYNELQKDKMAEAYSEIGMKGERRRGKGHDGLYQGLSTATKDTYDALHMQALPPR
[2]
  cytolytic activity toward multiple myeloma cells (H929, MM1.R, OPM-2), versus control NK cells (NKvec): 3 to 4 times and > 4 times
